Reference: article PMC7618453, “Calcium Competitive Inhibition of Langerin by Thiazolopyrimidinones” (Journal of Medicinal Chemistry, 2025)

Experiments:
[1] = biological target: T1, murine langerin CRD (Mus musculus, UniProt Q8VBX4); assay: ITC titration of inhibitors into murine langerin CRD; format: binding; details: for Kd: ITC, 278.15 K; for Ligand efficiency (LE): based on the best affinities from both conditions (Ca2+ present/absent), Gibbs free energy / number of non-hydrogen atoms
T1 construct: Murine langerin CRD (amino acids: 191–331) was cloned; made in house; host or cells: E. coli BL21
T1 sequence (Q8VBX4 191-331): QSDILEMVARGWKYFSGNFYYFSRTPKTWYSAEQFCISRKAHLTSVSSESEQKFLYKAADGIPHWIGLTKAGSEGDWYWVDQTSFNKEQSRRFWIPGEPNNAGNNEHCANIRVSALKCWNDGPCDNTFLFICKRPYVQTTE
Method: Isothermal titration calorimetry experiments were performed using a PEAQ-ITC from Malvern or a Nano ITC from TA Instruments at 278.15 K. Langerin CRD in 25 mM MES/NaOH pH = 6.0 with 40 mM NaCl was injected in the sample cell (total volume 170–300 μL, receptor concentration 80–100 μM) of the device. The titrant was dissolved in the same buffer as the protein and added in 20 steps of 2.5 μL (first injection, 1.2 μL; total volume, 50 μL) while stirring at 350 rpm. The differential heat of each injection was measured and plotted against the molar ratio. All thermograms were integrated using NITPIC, the titration curves were fitted using SEDPHAT with error estimates using the confidence interval, and all figures were made in GUSSI.
For Ca^2+ titration, calcium chloride solutions were prepared in 25 mM MES/NaOH, 40 mM NaCl in the syringe. Langerin CRD was dialyzed against 25 mM MES/NaOH, 40 mM NaCl with 10 mM EDTA, and subsequently 25 mM MES/NaOH, 40 mM NaCl, to remove Ca^2+ before loading into the sample cell. The thermogram of Ca^2+ titration was fitted with the One-Site (independent) model. In the Ca^2+ present titration set up, the protein was in 25 mM MES/NaOH, 40 mM NaCl with 5 mM calcium chloride, and 5% DMSO in the sample cell. The ligand concentration was set to 0.1–2 mM, depending on the solubility, and dissolved in the same buffer as the protein. The raw data were fitted using either the One-Site (independent) model or the Competitive Binding model. Affinity and enthalpy data of Ca^2+ binding to langerin were extracted from the Ca^2+ titration and applied in the Competitive Binding model subsequently. In the Ca^2+ absent titration set up: ligand concentration was set to 0.1–2 mM, receptor concentration was set to 80–100 μM, both dissolved in 25 mM MES/NaOH, 40 mM NaCl with 5%DMSO. The thermogram was fitted with the one-site (independent) model.
Isothermal Titration Calorimetry (ITC)
The raw ITC data were initially processed using the default software provided by respective ITC instrument: MicroCal PEAQ-ITC Analysis Software 1.41 and Nanoanalyze Data Analysis 3.5.0. For MicroCal, the fitting model was set to One Set of Sites, with the following parameters: baseline option (time factor 5, points per injection 25), control parameter set to Fitted Offset, site value fixed at 1 and other parameters set to vary. For Nanoanalyze, blank titration files were used for area correction, fitting model set to independent, binding site n fixed at 1, and other parameters allowed to vary.
The raw data from both systems were further processed using NITPIC 2.1.0, baseline type set to Best Fit, with pre- and post-injection tail correction applied, integral significance level was adjusted based on the quality of each titration, and the outlier threshold was defined as twice of the standard deviation. The processed data were then analyzed in SEDPHAT 15.2b. For Ca2+ titration and ligand titration in the absence of Ca2+, the fitting model was set as Hetero Association A-B (Single-site model) with the global parameter log(Ka) and dHAB set as vary. For ligand titration in the presence of Ca2+, the fitting model was set as Competing B and C for A (Competitive binding model) with the global parameter log(KAC) and dHAC set as the data obtained from Ca2+ titration (4.336 and -8.2 kcal/mol), and log(KAB) and dHAB as vary. Experimental parameters for titration were defined as Titrating B into AC. Final presentation of the […]

[2] = biological target: T1, murine langerin CRD; assay: 43Ca NMR assay of Ca2+ binding to langerin in the presence of inhibitors; design: Chemical shift δ (Table S1, 43Ca NMR) / Linewidth ∆ν (Table S1, 43Ca NMR): unit not given here; details: Ca2+ + langerin + 400 μM inhibitor, pH 6.0; for Chemical shift δ (Table S1, 43Ca NMR): free 0.175, langerin-bound 0.116; for Linewidth ∆ν (Table S1, 43Ca NMR): free 0.89, langerin only 1.94; for Integral (relative to the ligand present free state) (Table S1, 43Ca NMR): free 1, langerin only 0.147
Method: ^43Ca NMR samples contain 50 μM langerin CRD in 25 mM MES/NaOH and 40 mM NaCl, pH 6.0, with 2.5 mM ^43CaCl2 (elemental calcium enriched to 57.9%, prepared from CaCO3 by hydrolysis with conc. HClaq followed by drying under vacuum; repeated three times), 400 μM compound, and 10% D2O. The negative controls contain the same components except for the protein. The positive control has 5 mM EDTA for fully chelating 2.5 mM Ca^2+ in 25 mM MES/NaOH and 40 mM NaCl. A spectrum width between 50 and −50 ppm was chosen. NMR spectra were measured at 25 °C on a 500 MHz Bruker NEO spectrometer equipped with a BBO probe. The carrier frequency was set to 0 ppm, and spectra were recorded with a recovery delay of […] and 1024 scans. All experiments were carried out with constant concentrations, volumes, receiver gains, and numbers of averaged FIDs.
Data processing and visualization were performed using TopSpin 4.4.0 (Bruker BioSpin GmbH, Rheinstetten, Germany) and MestReNova 10.0 (Mestrelab Research, Santiago de Compostela, Spain). Spectra were processed using an exponential window function with 1.00 Hz, zero-filled to a final size of 32,768 points (from an original FID size of 3,424), and baseline-corrected using spline. Parameter extraction was performed on data fitted without a window function to ensure an unbiased representation of the spectral features. […]

[3] = biological target: murine langerin; details: in the presence of Ca^2+; previously reported, previous screening campaign (reference number not given); read-out: previously reported affinities; cited from earlier work
[4] = biological target: T1, murine langerin CRD; assay: 19F R2-filtered NMR assay with carbohydrate reporter ManNAcF3; format: binding; details: 25 mM MES/NaOH, 40 mM NaCl, 5 mM CaCl2, pH 6.0; 50 μM protein; read-out: K D of the carbohydrate reporter
Method: ^19F-NMR and ^19F-R2-filtered NMR experiments were conducted on a Bruker UltraShield 500 MHz spectrometer at 298 K. Spectra were processed in MestReNova 12.0, and data analysis was performed with GraphPad Prism version 10.2.0 for Windows (GraphPad Software, Boston, Massachusetts, USA, www.graphpad.com). Relaxation rates R 2,obs were determined with the CPMG pulse sequence, eq shown below. T represents the relaxation time, and I 0 is the integral at a T value of 0 s. The relaxation delay d 1 was set to 2.0 s, the acquisition time t acq was set to 0.87 s, and the frequency of 180° pulses νCPMG was set to 500 Hz. I=I0e^−R2,obsT 2
The KD value of the reporter was determined in a titration experiment at five concentrations [L]T with 50 μM protein. Samples were prepared via serial dilution. The K D and the R 2,b value of the reporter molecule were derived from eq by detection of the ^19F NMR relaxation rate R 2,obs in a two-parameter fit. R 2,b represents the relaxation rate in the bound state of the ligand, and p b is the bound fraction of the ligand, while [P]T represents the concentration of the receptor. The relaxation rate of the free ligand R 2,f was measured at 0.1 mM in the absence of the receptor. […]
Due to the complex equilibrium and competition effects present in the competitive binding experiments, EC50 values were utilized to quantify the inhibition degree. […]

[5] = Solubility assessment using 1H NMR; format: physicochemical; details: DSS reference, titrated from DMSO stock into protein buffer
Method: The compounds were dissolved in 100 mM DMSO and titrated into the same buffer solution where the protein was stored for different essays. DSS was used as the reference with a concentration of 100 µM. The integration and chemical shift of the ligand signals were monitored as indicators of potential aggregation. The solubility of compounds 1, 2, 3 were reported elsewhere. 1
Figure S1. Solubility assessment of compound 3 and 5 using 1H NMR. Compound […]
with the expected ratio relative to DSS, indicating its solubility at 1 mM in aqueous […]
(1 picture or pasted object on this page, not shown here)

[6] = tested on: langerin; details: previous results using more elaborate structures from this series (reference number not given); cited from earlier work
[7] = 5 mM CaCl2, 25 mM MES/NaOH pH 6.0, 40 mM NaCl, 5% DMSO, mean ± standard error of fit, read-out: K D [single-site model] (A + B↔AB), Ca^2+ present
[8] = 5 mM CaCl2, pH 6.0, 5% DMSO, competition between inhibitor and Ca2+ assumed, read-out: K D [competitive binding model] (A + B + C ↔ AB + C ↔ AC + B), Ca^2+ present
[9] = Ca2+-depleted protein, 25 mM MES/NaOH pH 6.0, 40 mM NaCl, 5% DMSO, read-out: K D [single-site model] (A + B ↔ AB), Ca^2+ absent

Row | SMILES | Kd [1, 7] [µM] | Kd [1, 8] [µM] | Kd [1, 9] [µM] | Ligand efficiency (LE) [1] [kcal·mol^–1·HA^–1] | Chemical shift δ (Table S1, 43Ca NMR) [2] | Linewidth ∆ν (Table S1, 43Ca NMR) [2] | Integral (relative to the ligand present free state) (Table S1, 43Ca NMR) [2] | Kd [4] [µM] | solubility ([5]; aqueous protein storage buffer, aqueous buffer, kinetic from dmso stock) [µM] | Solubility in aqueous buffer [5] | Kd [3] [µM] | Competition with Ca^2+ [6]
1 | NCCNC(=O)c1cnc2ccccn2c1=O [Compound 4, N-(2-Aminoethyl)-4-oxo-4H-pyrido[1,2-a]pyrimidine-3-carboxamide] | 8500 ± 2000 | 480 ± 70 | 200 ± 90 | 0.27 | 0.174 | 1.64 | 0.316 | – | – | – | – | –
2 | Cc1csc2ncc(C(=O)O)c(=O)n12 [Compound 2] | 400 ± 70 | 81 ± 12 | 19 ± 2 | 0.46 | 0.154 | 1.79 | 0.324 | – | – | – | 1200 | –
3 | Cc1sc2ncc(C(=O)O)c(=O)n2c1C [Compound 3] | 150 ± 40 | 17 ± 4 | 53 ± 8 | 0.44 | 0.139 | 1.78 | 0.344 | – | ≥ 1000 | – | 900 | –
4 | O=C(O)c1cnc2sccn2c1=O [Compound 1] | – | – | 1100 ± 300 | 0.31 | 0.173 | 2.80 | 0.355 | – | – | – | 700 | –
5 | O=C(NCCc1cn2c(n1)SCC2)c1cnc2sccn2c1=O [N-(2-(2,3-dihydroimidazo[2,1-b]-thiazol-6-yl)-ethyl)-5-oxo-5H-thiazolo[3,2-a]-pyrimidine-6-carboxamide] | – | – | – | – | – | – | – | – | – | – | – | did not show competition with Ca^2+

Second part, led by results:

Row | Kd [1, 7] [µM] | Kd [1, 8] [µM] | Kd [1, 9] [µM] | Ligand efficiency (LE) [1] [kcal·mol^–1·HA^–1] | Chemical shift δ (Table S1, 43Ca NMR) [2] | Linewidth ∆ν (Table S1, 43Ca NMR) [2] | Integral (relative to the ligand present free state) (Table S1, 43Ca NMR) [2] | Kd [4] [µM] | solubility ([5]; aqueous protein storage buffer, aqueous buffer, kinetic from dmso stock) [µM] | Solubility in aqueous buffer [5] | SMILES | Kd [3] [µM] | Competition with Ca^2+ [6]
6 | – | – | – | – | – | – | – | 28000 ± 5000 | – | – | C#CCO[C@H]1O[C@H](CO)[C@@H](O)[C@H](O)[C@@H]1NC(=O)C(F)(F)F [ManNAcF3] | – | –
7 | – | – | – | – | – | – | – | – | – | partial solubility | O=C(O)c1cnc2ccccn2c1=O [Compound 5, 4-oxo-4H-pyrido[1,2-a]pyrimidine-3-carboxylic acid] | – | –
